Measurements: US20040070093A1, “Process for preparing microparticles through phase inversion phenomena” (Brown University Research Foundation, priority 1995, published 2004)

Assay: in vivo
Conditions: rat, serum, po, 25 mg/kg
Procedure: Dicumarol containing microspheres were produced as described above in Example 2, subsection 1. Equal doses of dicumarol, spray dried dicumarol and polyanhydride (FA:SA) 20:80 encapsulated dicumarol (25 mg drug/kg body weight) suspended in 1.5 ml maple syrup were fed to catheterized rats (250-350 g). Blood samples were taken at regular intervals and serum was assayed for dicumarol concentrations using a UV spectrophotometric method.

For `O=c1oc2ccccc2c(O)c1Cc1c(O)c2ccccc2oc1=O` [SPRAY DICUMAROL CONTROL, dicumarol], which AUC is on record?
The AUC was 232 ± 19.2 µg·h/mL.

What about the Cmax of the same compound?
Its Cmax is 17900 ± 1220 ng/mL.

What about the Tmax of the same compound?
The Tmax was 9.42 ± 1.36 h.

And the half-life?
Its half-life is 973 ± 52.2 min.
